Test [1] deals with ISC-enriched organoids in ENR+CD. Briefly: 384-well secondary screen in ENR+CD incl. early vs. full treatment, secreted LYZ (LYZ.NS, LYZ.S). It is filed as cell-based, C57BL/6 mice. The following applies: ENR+CD, across all doses. The source says:
We again assessed treatment effect size with replicate SSMD (using a difference between well replicates and median assay value for all same-plate control wells—see Materials and Methods, High-throughput screening: 384-well secondary screen format and early vs. full treatment analysis) and hits were considered statistically validated by an SSMD greater than the false-positive-derived cutoffs (βα1=0.89 for 8 replicates with alpha=0.05; see Materials and Methods, High-throughput screening: 384-well secondary screen format and early vs. full treatment analysis) for both LYZ.NS and LYZ.S assays (FIG. 7A). Per this new cutoff, 10 dose-treatment combinations corresponding to 7 small molecules were chosen as hits, with every passing dose-treatment having a greater than 0 ATP effect size.
For 384-well plate high-throughput screening, ISC-enriched organoids were passaged and split to single cells with TyrpLE (Thermo Fisher Scientific) and cultured for 2-3 days in ENR+CVY prior to transfer to a “2.5-D” 384-well plate culture system. To prepare for “2.5D” plating, cell-laden Matrigel and media were homogenized via mechanical disruption and centrifuged at 300 g for 3 min at 4° C. Supernatant was removed and the pellet washed and spun in basal culture medium repeatedly until the cloudy Matrigel above the cell pellet was gone. On the final wash, pellet was resuspended in basal culture medium, the number of organoids counted, and the cell pellet was resuspended in ENR+CD medium at ˜7 clusters/μL. 384-well plates were first filled with 10 μL of 70% Matrigel (30% basal media) coating in each well using a Tecan Evo 150 Liquid Handling Deck, and allowed to gel at 37° C. for 5 minutes. Then 30 μL of cell-laden media was plated at the center of each well of 384-well plates with the liquid handler, and the plates were spun down at 50 g for 1 minute to embed organoids on the Matrigel surface. Compound libraries were pinned into prepped cell plates using 50 nL pins into 30 μL media/well. Cells were cultured at 37° C. with 5% CO2 for six days in ENR+CD medium supplemented with the tested compounds with a media change at three days. On day six, lysozyme secretion and cell viability were assessed using Lysozyme Assay Kit (EnzChek) and CellTiter-Glo 3D Cell Viability Assay (Promega), respectively, according to the manufacturers' protocols. Briefly, screen plates were washed 3× with FluoroBrite basal media (2 mM GlutaMAX and 10 mM HEPES in FluoroBrite DMEM (Thermo Fisher Scientific)) using a BioTek 406 plate washer with 10 min incubations followed by a 1 min centrifugation at 200 g to settle media between washes. After removal of the third wash, 30 μL of non-stimulated FluoroBrite basal media was added to each screen well using a Tecan Evo 150 Liquid Handling Deck from a non-stimulated treatment master plate, and plates were incubated for 30 min at 37° C. After 30 minutes, the top 15 μL of media from each well of the screen plate was transferred to a non-stimulated LYZ assay plate containing 15 μL of 20× DQ LYZ assay working solution using a Tecan Evo 150 Liquid Handling Deck. The non-stimulated LYZ assay plate was covered, shaken for 10 min, incubated for 50 min at 37° C., then fluorescence measured (shake 10 s; […]/518 nm) using a Tecan M1000 Plate Reader. After the media transfer to the non-stimulated LYZ assay plate, the remaining media was removed from the screen plate and 30 μL of Stimulated FluoroBrite basal media (supplemented with 10 μM CCh) was added to each screen well using a Tecan Evo 150 Liquid Handling Deck from a stimulated treatment master plate, and plates were incubated for 30 min at 37° C. After 30 minutes, the top 15 μL of media from each well of the screen plate was transferred to a stimulated LYZ assay plate containing 15 μL of 20× DQ LYZ assay working solution using a Tecan Evo 150 Liquid Handling Deck. […]

Test [2] concerns conventional organoid (ENR). The test can be described thus: 384-well screen in conventional organoid (ENR), secreted LYZ (LYZ.NS, LYZ.S). Format: cell-based, C57BL/6 mice. The following applies: 6-day ENR differentiation compared with ENR+CD.
For test [3], the system named is 6-day ENR+CD cells. Briefly: Cell pellet ATP after long-term (48-hour) treatment. Format: cell-based, murine. To be noted: low doses. The source says: (§1) We next sought to profile potential long-term modulators of differentiated PC survival and antimicrobial secretion, as well as gauge the interaction between long-term modulators and short-term induced secretion (via CCh). To accomplish this, we employed a similar set up as in the short-term experiment, with the exception that upon plating day 4 ENR+CD cells we additionally supplemented in either MDP, LPS, TNF-α, or IFN-γ for the additional 2 days in culture and assayed all conditions for both basal and CCh-induced LYZ secretion over 3 hours on day 6 of differentiation (FIG. 3A). […] Additionally, we see that the long-term addition reduces CCh-induced secretory function relative to the untreated control for all agents (FIG. 3D).
Small intestinal crypts were isolated from C57BL/6 mice of both sexes, aged between three to six months in all experiments. Crypts were then cultured in a Matrigel culture system. Briefly, crypts were resuspended in basal culture medium (Advanced DMEM/F12 with 2 mM GlutaMAX and 10 mM HEPES; Thermo Fisher Scientific) at a 1:1 ratio with Corning™ Matrigel™ Membrane Matrix—GFR (Fisher Scientific) and plated at the center of each well of 24-well plates. Following Matrigel polymerization, 500 μL of small intestinal crypt culture medium (basal media plus 100× N2 supplement, 50×B27 supplement; Life Technologies, 500× N-acetyl-L-cysteine; Sigma-Aldrich) supplemented with growth factors EGF—E (50 ng/mL, Life Technologies), Noggin—N (100 ng/mL, PeproTech) and R-spondin 1—R (500 ng/mL, PeproTech) and small molecules CHIR99021—C (3 μM, LC Laboratories) and valproic acid—V (1 mM, Sigma-Aldrich) was added to each well. ROCK inhibitor Y-27632—Y (10 μM, R&D Systems) was added for the first 2 days of culture. Cells were cultured at 37° C. with 5% CO2, and cell culture medium was changed every other day. After 6 days of culture, crypt organoids were isolated from Matrigel by mechanical dissociation. To expand enriched ISCs (ENR+CV/Y) or Paneth Cells (ENR+CD), organoids were cultured in 24-well plates, suspended in 40 uL 3-D gels (50-50 GFR MATRIGEL®, Basal culture media), with 500 uL of crypt media supplemented with necessary growth factors and small molecules. […]
For 96-well plate high-throughput screening, 4-day differentiated (ENR+CD) cell clusters in 3D Matrigel were transferred to a “2.5-D” 96-well plate culture system. […] On the last repeat, pellet was resuspended in basal culture medium, the number of cell clusters counted, and centrifuged at 300 g for 3 min at 4° C. […] At end time points (following 2 days in culture and 3 hours of stimulation), lysozyme secretion and cell viability were assessed using Lysozyme Assay Kit and CellTiter-Glo 3D Cell Viability Assay (Promega), respectively, according to the manufacturers' protocols. […]

For test [4], the system named is 6-day ENR+CD cells. Briefly: Long-term (48-hour) modulators of basal and CCh-induced LYZ secretion. Format: cell-based, murine. The following applies: 48-hour treatment, CCh-induced secretion over 3 hours on day 6.
Text: as §1
Small intestinal crypts were isolated from C57BL/6 mice of both sexes, aged between three to six months in all experiments. Crypts were then cultured in a Matrigel culture system. Briefly, crypts were resuspended in basal culture medium (Advanced DMEM/F12 with 2 mM GlutaMAX and 10 mM HEPES; Thermo Fisher Scientific) at a 1:1 ratio with Corning™ Matrigel™ Membrane Matrix—GFR (Fisher Scientific) and plated at the center of each well of 24-well plates. Following Matrigel polymerization, 500 μL of small intestinal crypt culture medium (basal media plus 100× N2 supplement, 50×B27 supplement; Life Technologies, 500× N-acetyl-L-cysteine; Sigma-Aldrich) supplemented with growth factors EGF—E (50 ng/mL, Life Technologies), Noggin—N (100 ng/mL, PeproTech) and R-spondin 1—R (500 ng/mL, PeproTech) and small molecules CHIR99021—C (3 μM, LC Laboratories) and valproic acid—V (1 mM, Sigma-Aldrich) was added to each well. ROCK inhibitor Y-27632—Y (10 μM, R&D Systems) was added for the first 2 days of culture. Cells were cultured at 37° C. with 5% CO2, and cell culture medium was changed every other day. After 6 days of culture, crypt organoids were isolated from Matrigel by mechanical dissociation. To expand enriched ISCs (ENR+CV/Y) or Paneth Cells (ENR+CD), organoids were cultured in 24-well plates, suspended in 40 uL 3-D gels (50-50 GFR MATRIGEL®, Basal culture media), with 500 uL of crypt media supplemented with necessary growth factors and small molecules. ROCK inhibitor (Y) was added for the first two days of ISC culture following reconstitution from cryopreservation or trypLE passaging to single cells. Cell culture medium was changed every other day. After 4 days of culture in ENR+CV, cell clusters were differentiated to PCs under the ENR+CD condition for 96-well short and long-term screens. For 384-well differentiation screens, 4-day ENR+CV clusters were passaged to single cells using trypLE, replated and expanded another 3 days in 3-D ENR+CVY and then passaged directly into screens.
For 96-well plate high-throughput screening, 4-day differentiated (ENR+CD) cell clusters in 3D Matrigel were transferred to a “2.5-D” 96-well plate culture system. Briefly, cell culture gel and medium were homogenized via mechanical disruption and centrifuged at 300 g for 3 min at 4° C. […] On the last repeat, pellet was resuspended in basal culture medium, the number of cell clusters counted, and centrifuged at 300 g for 3 min at 4° C. […] At end time points (following 2 days in culture and 3 hours of stimulation), lysozyme secretion and cell viability were assessed using Lysozyme Assay Kit and CellTiter-Glo 3D Cell Viability Assay (Promega), respectively, according to the manufacturers' protocols. […]

Here are results for three molecules from patent publication US20200237852A1, “Small Molecule Enhancers of Paneth Cell Function and Differentiation” (Massachusetts Institute of Technology, priority 2019, published 2020).

Regarding `COc1ccc(C2CNC(=O)C2)cc1OC1CCCC1` (centres unmarked) [Rolipram], the “ATP-normalized LYZ assays (LYZ.NS/ATP, LYZ.S/ATP), early versus full treatment” value in test [1] is reported as “do not see a trend or significant difference”.
In the case of `CCc1c(C(=O)C(N)=O)c2c(OCC(=O)O)cccc2n1Cc1ccccc1` [Varespladib], in test [2], the “mean fold change in LYZ.NS/ATP and LYZ.S/ATP (LYZ secretion per cell) in ENR” value is reported as “minimal effects in the ENR-only system”.
With TNF-α, in the test with 6-day ENR+CD cells [3], the “SSMD effect size of increase in cell number (ATP)” value is “weak” and the “change in cell number (ATP rel. to ENR+CD)” value is listed as “apparent increases in cell number”. In addition, the “effect size of reduction of CCh-induced secretory function relative to untreated control” value in the test with 6-day ENR+CD cells [4] was “weak”.
